Drawing on article PMC12080319 (The Plant Journal, 2025), this text covers Kd for 2 molecules.

In general, Kd refers to the constant that tells how readily two partners part at equilibrium. Read a low Kd as tighter binding.

Experiment in all cases: microscale thermophoresis
Holding throughout (type): binding
On the technique in general: In MST a laser heats a spot of the sample, and binding alters the fluorescence response.

Experiment [1] has as its target T1, OsNAT9 (OsNAT9-GFP) (Oryza sativa, UniProt Q10ET9, G349A).
T1 sequence (Q10ET9 1-527 G349A): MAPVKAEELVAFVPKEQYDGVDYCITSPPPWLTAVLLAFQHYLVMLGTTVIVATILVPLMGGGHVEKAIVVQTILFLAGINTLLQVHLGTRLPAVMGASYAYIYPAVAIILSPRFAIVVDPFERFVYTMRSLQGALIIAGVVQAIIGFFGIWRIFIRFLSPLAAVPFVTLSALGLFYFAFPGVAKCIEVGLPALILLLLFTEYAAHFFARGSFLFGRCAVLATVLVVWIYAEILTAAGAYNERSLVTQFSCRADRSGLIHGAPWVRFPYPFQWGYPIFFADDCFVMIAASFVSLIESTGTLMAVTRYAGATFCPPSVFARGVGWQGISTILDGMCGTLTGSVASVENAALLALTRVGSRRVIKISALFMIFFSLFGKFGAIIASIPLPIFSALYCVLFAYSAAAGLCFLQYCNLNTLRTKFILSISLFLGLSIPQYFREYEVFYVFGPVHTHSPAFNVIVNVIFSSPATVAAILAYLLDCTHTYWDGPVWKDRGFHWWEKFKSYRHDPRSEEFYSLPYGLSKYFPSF

The target of experiment [2] is T2, OsNAT9 (OsNAT9-GFP) (Oryza sativa, UniProt Q10ET9, S344A).
T2 sequence (Q10ET9 1-527 S344A): T1 sequence (Q10ET9 1-527 G349A) with S344A, A349G

Experiment [3] concerns the target T3, OsNAT9 (OsNAT9-GFP) (Oryza sativa, UniProt Q10ET9, E346A).
T3 sequence (Q10ET9 1-527 E346A): T1 sequence (Q10ET9 1-527 G349A) with E346A, A349G

In experiment [4] the target is T4, OsNAT9 (OsNAT9-GFP) (Oryza sativa, UniProt Q10ET9).
T4 sequence (Q10ET9 1-527): T1 sequence (Q10ET9 1-527 G349A) with A349G

Positions count from the first letter of the chain named.

Regarding `O=C1O[C@H]([C@@H](O)CO)C(O)=C1O` [AsA, ascorbic acid], the Kd in experiment [1] was 0.55 ± 0.53 nM; in experiment [2] it was 101 ± 27.6 nM; in experiment [3] it was 80.7 ± 6.06 nM; in experiment [4] it was 0.28 ± 0.23 nM.
As for `O=c1[nH]c(=O)c2[nH]cnc2[nH]1` [xanthine], in experiment [4], the affinity, expressed as Kd, was 0.39 ± 0.11 nM.
